Measurements: patent US10023592B2, “Bromodomain inhibitors” (Celgene Quanticel Research, Inc., priority 2013, dated 2018)

Biological target: BRD4(BD1) (Homo sapiens (Human), UniProt O60885)
Test: In vitro enzyme inhibition assay (BRD4 AlphaScreen)
Type: binding
Settings: in vitro enzyme inhibition assay
Procedure, shortened: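 AlphaScreen proximity readout, using streptavidin donor and Ni-chelate acceptor beads at 5 μg/mL final, monitors biotin-H4 tetraacetylated peptide interaction with purified His-tagged BRD4.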

| Compound | IC50 [nM] |
| --- | --- |
| Cn1cc(-c2cc(OCC3CC3)cc(S(C)(=O)=O)c2)c2ccccc2c1=O [Example 345, 4-[3-(cyclopropylmethoxy)-5-methylsulfonylphenyl]-2-methylisoquinolin-1-one] | < 500 |
| CCS(=O)(=O)Nc1nc(Oc2ccc(F)cc2F)cc(-c2cc(C)c(=O)n(C)c2)n1 [Example 346, N-[4-(2,4-difluorophenoxy)-6-(1,5-dimethyl-6-oxopyridin-3-yl)pyrimidin-2-yl]ethanesulfonamide] | 500 to 5000 |
| CCS(=O)(=O)Nc1cc(-c2cc(C)c(=O)n(C)c2)nc(Oc2ccc(F)cc2F)n1 [Example 347, N-[2-(2,4-difluorophenoxy)-6-(1,5-dimethyl-6-oxopyridin-3-yl)pyrimidin-4-yl]ethanesulfonamide] | 500 to 5000 |
| Cn1cc(-c2cc(OCC3CC3)cc(S(C)(=O)=O)c2)c2ccoc2c1=O [Example 350, 4-[3-(cyclopropylmethoxy)-5-methylsulfonylphenyl]-6-methylfuro[2,3-c]pyridine-7-one] | < 500 |
| CCCc1cnc(NS(=O)(=O)CC)nc1-c1ccc(=O)n(C)c1 [Example 357, N-[4-(1-methyl-6-oxopyridin-3-yl)-5-propylpyrimidin-2-yl]ethanesulfonamide] | < 500 |
| CCCc1cnc(NS(=O)(=O)CC)nc1-c1cc(Cl)c(=O)n(C)c1 [Example 359, N-[4-(5-chloro-1-methyl-6-oxopyridin-3-yl)-5-propylpyrimidin-2-yl]ethanesulfonamide] | < 500 |
| CCCCc1cnc(NS(=O)(=O)CC)nc1-c1cc(Cl)c(=O)n(C)c1 [Example 360, N-[5-butyl-4-(5-chloro-1-methyl-6-oxopyridin-3-yl)pyrimidin-2-yl]ethanesulfonamide] | < 500 |
| CCCc1cnc(NS(=O)(=O)CC)nc1-c1cc(OC)c(=O)n(C)c1 [Example 361, N-[4-(5-methoxy-1-methyl-6-oxopyridin-3-yl)-5-propylpyrimidin-2-yl]ethanesulfonamide] | < 500 |
| CCCCc1cnc(NS(=O)(=O)CC)nc1-c1cc(OC)c(=O)n(C)c1 [Example 362, N-[5-butyl-4-(5-methoxy-1-methyl-6-oxopyridin-3-yl)pyrimidin-2-yl]ethanesulfonamide] | < 500 |
| CCCCc1cnc(NS(C)(=O)=O)nc1-c1cc(C)c(=O)n(C)c1 [Example 363, N-[5-butyl-4-(1,5-dimethyl-6-oxopyridin-3-yl)pyrimidin-2-yl]methanesulfonamide] | < 500 |
| CC(C)S(=O)(=O)c1ccc(OCC2CC2)c(-c2cn(C)c(=O)c3ccccc23)c1 [Example 364, 4-[2-(cyclopropylmethoxy)-5-propan-2-ylsulfonylphenyl]-2-methylisoquinolin-1-one] | < 500 |
| CCS(=O)(=O)c1ccc(NCC2CC2)c(-c2cn(C)c(=O)c3cncn23)c1 [Example 375, 5-[2-(cyclopropylmethylamino)-5-ethylsulfonylphenyl]-7-methylimidazo[1,5-a]pyrazin-8-one] | < 500 |
| CCC#CCOc1ccc(S(=O)(=O)CC)cc1-c1cc(OC)c(=O)n(C)c1 [Example 390, 5-(5-ethylsulfonyl-2-pent-2-ynoxyphenyl)-3-methoxy-1-methylpyridin-2-one] | < 500 |
| CCS(=O)(=O)c1ccc(Oc2ccc(F)cc2F)c(-c2cc(C(F)(F)F)c(=O)n(C)c2)c1 [Example 392, 5-[2-(2,4-difluorophenoxy)-5-ethylsulfonylphenyl]-1-methyl-3-(trifluoromethyl)pyridin-2-one] | 500 to 5000 |
| COc1ccc2c(=O)n(C)cc(-c3cc(S(=O)(=O)C(C)C)ccc3OCC3CC3)c2c1 [Example 393, 4-[2-(cyclopropylmethoxy)-5-propan-2-ylsulfonylphenyl]-6-methoxy-2-methylisoquinolin-1-one] | < 500 |
| Cc1cc(-c2cc(S(=O)(=O)C(C)C)ccc2OCC2CC2)cn(C)c1=O [Example 394, 5-[2-(cyclopropylmethoxy)-5-propan-2-ylsulfonylphenyl]-1,3-dimethylpyridin-2-one] | < 500 |
| CCS(=O)(=O)Nc1cc(OCc2ccccc2)cc(-c2cc(C)c(=O)n(C)c2)c1 [Example 395, N-[3-(1,5-dimethyl-6-oxopyridin-3-yl)-5-phenylmethoxyphenyl]ethanesulfonamide] | < 500 |
| Cc1cc(-c2cc(S(C)(=O)=O)ccc2O[C@H]2CC[C@@H](N)CC2)cn(C)c1=O [Example 403, 5-[2-(cis-4-aminocyclohexyl)oxy-5-methylsulfonylphenyl]-1,3-dimethylpyridin-2-one] | < 500 |
| Cc1cc(-c2cc(S(C)(=O)=O)ccc2OCCC(F)(F)F)cn(C)c1=O [Example 405, 1,3-dimethyl-5-[5-methylsulfonyl-2-(3,3,3-trifluoropropoxy)phenyl]pyridin-2-one] | < 500 |
| Cc1cc(-c2cc(CS(C)(=O)=O)ccc2Oc2ccc(F)cc2F)cn(CCO)c1=O [Example 406, 5-[2-(2,4-difluorophenoxy)-5-(methylsulfonylmethyl)phenyl]-1-(2-hydroxyethyl)-3-methylpyridin-2-one] | < 500 |
| CCS(=O)(=O)Cc1ccc(OCC(F)(F)F)c(-c2cc(C)c(=O)n(CCO)c2)c1 [Example 407, 5-[5-(ethylsulfonylmethyl)-2-(2,2,2-trifluoroethoxy)phenyl]-1-(2-hydroxyethyl)-3-methylpyridin-2-one] | 500 to 5000 |

| Compound | IC50 [nM] |
| --- | --- |
| CCS(=O)(=O)c1ccc(NCC2CC2)c(-c2cc(NC)c(=O)n(C)c2)c1 [Example 408, 5-[2-(cyclopropylmethylamino)-5-ethylsulfonylphenyl]-1-methyl-3-(methylamino)pyridin-2-one] | < 500 |
| CCS(=O)(=O)c1ccc(OCC2CC2)c(-c2cc(NC)c(=O)n(C)c2)c1 [Example 409, 5-[2-(cyclopropylmethoxy)-5-ethylsulfonylphenyl]-1-methyl-3-(methylamino)pyridin-2-one] | < 500 |
| CCS(=O)(=O)Nc1ccc(Oc2ccc(F)cc2F)c(-c2cc(NC)c(=O)n(C)c2)c1 [Example 410, N-[4-(2,4-difluorophenoxy)-3-[1-methyl-5-(methylamino)-6-oxopyridin-3-yl]phenyl]ethanesulfonamide] | < 500 |
| CCS(=O)(=O)Cc1ccc(OCC(F)(F)F)c(-c2cc(C)c(=O)n(C)c2)c1 [Example 411, 5-[5-(ethylsulfonylmethyl)-2-(2,2,2-trifluoroethoxy)phenyl]-1,3-dimethylpyridin-2-one] | < 500 |
| CNc1cc(-c2cc(NS(C)(=O)=O)ccc2Oc2ccc(F)cc2F)cn(C)c1=O [Example 412, N-[4-(2,4-difluorophenoxy)-3-[1-methyl-5-(methylamino)-6-oxopyridin-3-yl]phenyl]methanesulfonamide] | < 500 |
| Cc1cc(-c2cc(S(C)(=O)=O)ccc2NC2CCC(F)(F)CC2)cn(C)c1=O [Example 413, 5-[2-[(4,4-difluorocyclohexyl)amino]-5-methylsulfonylphenyl]-1,3-dimethylpyridin-2-one] | < 500 |
| CCS(=O)(=O)c1ccc(NCC2CC2)c(-c2cc(OC)c(=O)n(C)c2)c1 [Example 414, 5-[2-(cyclopropylmethylamino)-5-ethylsulfonylphenyl]-3-methoxy-1-methylpyridin-2-one] | < 500 |
| Cn1cc(-c2cc(CS(C)(=O)=O)ccc2OCC(F)(F)F)cc(F)c1=O [Example 421, 3-fluoro-1-methyl-5-[5-(methylsulfonylmethyl)-2-(2,2,2-trifluoroethoxy)phenyl]pyridin-2-one] | < 500 |
| Cc1cc(=O)n(C)cc1-c1cc(S(C)(=O)=O)ccc1NCC1CC1 [Example 422, 5-[2-(cyclopropylmethylamino)-5-methylsulfonylphenyl]-1,4-dimethylpyridin-2-one] | 500 to 5000 |
| CCS(=O)(=O)c1ccc(NCC2CC2)c(-c2cn(C)c(=O)cc2C)c1 [Example 423, 5-[2-(cyclopropylmethylamino)-5-ethylsulfonylphenyl]-1,4-dimethylpyridin-2-one] | 500 to 5000 |
| CCS(=O)(=O)Nc1cc(-c2ccc(=O)n(C)c2)c(-c2ccccc2)s1 [Example 424, N-[4-(1-methyl-6-oxopyridin-3-yl)-5-phenylthiophen-2-yl]ethanesulfonamide] | > 5000 |
| Cc1cc(-c2cc(S(C)(=O)=O)ccc2NC2CCOC2)cn(C)c1=O (centres unmarked) [Example 425, 1,3-dimethyl-5-[5-methylsulfonyl-2-(oxolan-3-ylamino)phenyl]pyridin-2-one] | < 500 |
| CCS(=O)(=O)Nc1cc(-c2ccc(=O)n(C)c2)c(-c2ccccc2C)s1 [Example 432, N-[4-(1-methyl-6-oxopyridin-3-yl)-5-(2-methylphenyl)thiophen-2-yl]ethanesulfonamide] | > 5000 |
| CCc1ccccc1-c1sc(NS(=O)(=O)CC)cc1-c1ccc(=O)n(C)c1 [Example 435, N-[5-(2-ethylphenyl)-4-(1-methyl-6-oxopyridin-3-yl)thiophen-2-yl] ethanesulfonamide] | > 5000 |
| [2H]C([2H])([2H])n1cc(-c2cc(S(=O)(=O)CC)ccc2OCC)c(C)cc1=O [Example 456, 5-(2-ethoxy-5-ethylsulfonylphenyl)-1-(^2H3)methyl-4-methylpyridin-2-one] | < 500 |
| CCOc1ccc(S(=O)(=O)CC)cc1-c1cn(C)c(=O)cc1C [Example 458, 5-(2-ethoxy-5-ethylsulfonylphenyl)-1,4-dimethylpyridin-2-one] | < 500 |
| Cn1cc(-c2cc(S(C)(=O)=O)ccc2OCC2CCC2)ccc1=O [Example 460, 5-[2-(cyclobutylmethoxy)-5-methylsulfonylphenyl]-1-methylpyridin-2-one] | < 500 |
| CCS(=O)(=O)c1ccc(OC)c(-c2cc(O)c(=O)n(C)c2)c1 [Example 461, 5-(5-ethylsulfonyl-2-methoxyphenyl)-3-hydroxy-1-methylpyridin-2-one] | 500 to 5000 |
| Cn1cc(-c2cccc(NS(C)(=O)=O)c2)cc(OCc2ccccc2)c1=O [Example 471, N-[3-(1-methyl-6-oxo-5-phenylmethoxypyridin-3-yl)phenyl]methanesulfonamide] | > 5000 |
| COc1cc(F)c(CS(C)(=O)=O)cc1-c1ccc(=O)n(C)c1 [Example 475, 5-[4-fluoro-2-methoxy-5-(methylsulfonylmethyl)phenyl]-1-methylpyridin-2-one] | 500 to 5000 |
